Reference: the CheMixHub viscosity set
Several values for one entry are separate records, joined by “and”; a condition that tells them apart may be missing. Equal values may be shown once.

Experiments:
[1] = xn = mol fraction of the nth substance listed

BrC(Br)Br
viscosity
Details | 298 K | 298.15 K | 303.15 K | 308.15 K | 313.15 K | 318 K
101 kPa | – | – | 1.843 mPa·s and 1.861 mPa·s | 1.729 mPa·s and 1.746 mPa·s | 1.623 mPa·s and 1.641 mPa·s | –
101.3 kPa | 1.873 mPa·s | 1.912 mPa·s | 1.79 mPa·s | 1.684 mPa·s | – | –
101.33 kPa | – | 1.912 mPa·s and 1.977 mPa·s | 1.79 mPa·s and 1.857 mPa·s | 1.684 mPa·s and 1.733 mPa·s | – | 1.476 mPa·s

BrC(Br)C(Br)Br
101 kPa
Details | viscosity [mPa·s]
298.08 K | 9.687
308.11 K | 7.313
313.11 K | 6.406

C=Cc1ccccc1
101 kPa
Details | viscosity
298.15 K | 1.07 mPa·s and 0.695 mPa·s
308.15 K | 0.618 mPa·s
313.15 K | 0.573 mPa·s

CC#N
Details | viscosity
293.15 K, 101.32 kPa | 0.3579 mPa·s
293.15 K, 101.33 kPa | 0.408 mPa·s and 0.383 mPa·s
297.92 K, 101 kPa | 0.3538 mPa·s
298.15 K, 100 kPa | 0.3479 mPa·s and 0.3462 mPa·s and 0.338 mPa·s
298.15 K, 101.3 kPa | 0.335 mPa·s and 0.346 mPa·s
298.15 K, 101.33 kPa | 0.39 mPa·s and 0.361 mPa·s and 0.345 mPa·s
301.67 K, 101 kPa | 0.3418 mPa·s
303 K, 100 kPa | 0.3485 mPa·s
303.15 K, 100 kPa | 0.3332 mPa·s and 0.3307 mPa·s
303.15 K, 101.3 kPa | 0.326 mPa·s
303.15 K, 101.33 kPa | 0.371 mPa·s and 0.333 mPa·s
303.61 K, 101 kPa | 0.3353 mPa·s
305.61 K, 101 kPa | 0.3294 mPa·s
308 K, 100 kPa | 0.3285 mPa·s
308 K, 101 kPa | 0.3205 mPa·s
308.15 K, 100 kPa | 0.3196 mPa·s and 0.3165 mPa·s
308.15 K, 101.3 kPa | 0.314 mPa·s and 0.306 mPa·s
308.15 K, 101.33 kPa | 0.319 mPa·s
308.76 K, 101 kPa | 0.3201 mPa·s
311.67 K, 101 kPa | 0.3112 mPa·s
313 K, 100 kPa | 0.3102 mPa·s
313.15 K, 100 kPa | 0.3071 mPa·s and 0.298 mPa·s
313.15 K, 101.3 kPa | 0.291 mPa·s
313.15 K, 101.32 kPa | 0.2974 mPa·s
313.15 K, 101.33 kPa | 0.337 mPa·s
318 K, 101 kPa | 0.2908 mPa·s
323.15 K, 100 kPa | 0.2849 mPa·s and 0.2624 mPa·s
323.15 K, 101.32 kPa | 0.2729 mPa·s
323.15 K, 101.33 kPa | 0.309 mPa·s

CC(=O)c1ccc(Cl)cc1
303.15 K
Details | viscosity [mPa·s]
100 kPa | 2.353
101 kPa | 2.353

CC(C)(C)N
viscosity
Details | 298 K | 298.15 K | 303 K | 303.15 K | 308 K | 308.15 K | 313.15 K
101 kPa | 0.434 mPa·s | 0.4394 mPa·s and 0.439 mPa·s | 0.403 mPa·s | 0.4363 mPa·s and 0.4443 mPa·s | 0.375 mPa·s | 0.4126 mPa·s and 0.4126 mPa·s | –
101.33 kPa | – | 0.4394 mPa·s | – | 0.4088 mPa·s | – | 0.3803 mPa·s | 0.3558 mPa·s

CC12CC3CC(C1)CC(C)(C3)C2
100 kPa
Details | viscosity
293.15 K | 3.779 mPa·s and 3.778 mPa·s
298.15 K | 3.371 mPa·s and 3.365 mPa·s
303.15 K | 3.027 mPa·s and 3.017 mPa·s
308.15 K | 2.747 mPa·s
313.15 K | 2.475 mPa·s
318.15 K | 2.262 mPa·s
323.15 K | 2.05 mPa·s

CC1CCCC(O)C1 (centres undefined)
Details | viscosity [mPa·s]
293.15 K, 101 kPa | 22.8

CCC(C)(C)OC
100 kPa
Details | viscosity [mPa·s]
293.15 K | 0.439
303.15 K | 0.415
313.15 K | 0.369
323.15 K | 0.335

CCCCCCCCO
viscosity
Details | 293.15 K | 298 K | 298.15 K | 303.15 K | 308 K | 308.15 K | 313 K | 313.15 K | 318.15 K | 323.15 K
100 kPa | 9.045 mPa·s and 9.2 mPa·s and 8.98 mPa·s | 7.614 mPa·s | 7.546 mPa·s and 7.67 mPa·s and 7.56 mPa·s | 6.337 mPa·s and 6.35 mPa·s | – | – | – | 4.564 mPa·s and 4.61 mPa·s and 4.585 mPa·s | – | 3.365 mPa·s and 3.38 mPa·s
101 kPa | 8.309 mPa·s and 9.185 mPa·s | – | 7.33 mPa·s and 7.3 mPa·s | – | 5.228 mPa·s | – | 4.464 mPa·s | 4.199 mPa·s and 4.691 mPa·s and 4.58 mPa·s | – | 3.464 mPa·s and 3.369 mPa·s
101.3 kPa | 9.273 mPa·s and 9.183 mPa·s | – | 7.598 mPa·s and 7.84 mPa·s | 6.102 mPa·s and 6.42 mPa·s | – | 5.403 mPa·s | – | 4.413 mPa·s and 4.661 mPa·s | 4.051 mPa·s and 3.701 mPa·s | 2.84 mPa·s
101.33 kPa | – | – | – | – | – | 5.352 mPa·s | – | – | – | 3.361 mPa·s and 3.361 mPa·s

CCn1cc[n+](C)c1.O=S(=O)([N-]S(=O)(=O)C(F)(F)F)C(F)(F)F
Details | viscosity
293.15 K, 100 kPa | 41.6 mPa·s and 39.2 mPa·s
297.55 K, 101 kPa | 36.3 mPa·s
298 K, 100 kPa | 29.67 mPa·s
298.15 K, 100 kPa | 33.9 mPa·s and 32.55 mPa·s
298.15 K, 101 kPa | 30.72 mPa·s and 32.3 mPa·s
298.15 K, 101.3 kPa | 32.42 mPa·s
303 K, 100 kPa | 24.82 mPa·s
303.15 K, 100 kPa | 27.68 mPa·s and 27.4 mPa·s
303.15 K, 101.3 kPa | 28.6 mPa·s
308 K, 100 kPa | 20.99 mPa·s
308.15 K, 101.3 kPa | 23.19 mPa·s
313 K, 100 kPa | 17.97 mPa·s
313.15 K, 100 kPa | 20.16 mPa·s and 19.1 mPa·s and 20.1 mPa·s
313.15 K, 101 kPa | 19.9 mPa·s and 19.26 mPa·s
313.15 K, 101.3 kPa | 19.94 mPa·s
318 K, 100 kPa | 15.57 mPa·s
318.15 K, 101.3 kPa | 17.37 mPa·s
323 K, 100 kPa | 13.28 mPa·s
323.15 K, 100 kPa | 15.34 mPa·s and 14.4 mPa·s and 15.3 mPa·s
323.15 K, 101.3 kPa | 15.34 mPa·s

NCCOCCO
101.33 kPa
Details | viscosity [mPa·s]
298.15 K | 26.66
313.15 K | 13.43
323.15 K | 9.155

O=S(=O)([N-]S(=O)(=O)C(F)(F)F)C(F)(F)F.OCCNCCO.[Li+]
101 kPa
Details | viscosity [mPa·s]
313.15 K | 1775
318.15 K | 1235
323.15 K | 895

CCN(CC)CCO.Cl + OCCO
viscosity [mPa·s], [1], 101 kPa
Details | 293.15 K | 298.15 K | 303.15 K | 308.15 K | 313.15 K | 318.15 K | 323.15 K
x1 = 0.25 | 37.6 | – | 29.6 | – | 23.6 | – | 19.1
x1 = 0.333 | – | 50.45 | 40.68 | 32.04 | 26.28 | 21.97 | 18.51

CCN(CC)CCO.Cl + OCCOCCO
[1], 101 kPa, x2 = 0.75
Details | viscosity [mPa·s]
293.15 K | 56.09
303.15 K | 50.09
313.15 K | 35.93
323.15 K | 25.49

C=Cc1ccccc1 + c1ccccc1
viscosity [mPa·s], [1], 101 kPa
Details | x2 = 0.1362 | x2 = 0.2498 | x2 = 0.3047 | x2 = 0.4109 | x2 = 0.5207 | x2 = 0.5834 | x2 = 0.7114 | x2 = 0.7924 | x2 = 0.8831
298.15 K | 0.672 | 0.654 | 0.645 | 0.633 | 0.623 | 0.618 | 0.608 | 0.605 | 0.604
303.15 K | 0.629 | 0.61 | 0.6 | 0.589 | 0.577 | 0.57 | 0.56 | 0.556 | 0.555
308.15 K | 0.59 | 0.57 | 0.56 | 0.548 | 0.537 | 0.53 | 0.52 | 0.515 | 0.514
313.15 K | 0.54 | 0.518 | 0.51 | 0.499 | 0.487 | 0.48 | 0.47 | 0.466 | 0.465

CC1CCCC(O)C1 (centres undefined) + c1ccccc1
[1], 293.15 K, 101 kPa
Details | viscosity
x2 = 0.3 | 4.2 mPa·s
x2 = 0.5 | 2.1 mPa·s
x2 = 0.6 | 1.6 mPa·s
x2 = 0.7 | 1.5 mPa·s
x2 = 0.8 | 1.2 mPa·s and 1.1 mPa·s

CCC(C)(C)OC + c1ccccc1
viscosity [mPa·s], [1], 100 kPa
Details | x1 = 0.051 | x1 = 0.1986 | x1 = 0.2998 | x1 = 0.3995 | x1 = 0.4992 | x1 = 0.5905 | x1 = 0.6974 | x1 = 0.8012 | x1 = 0.8948 | x1 = 0.9496
293.15 K | 0.623 | 0.579 | 0.553 | 0.53 | 0.51 | 0.493 | 0.475 | 0.46 | 0.451 | 0.445
303.15 K | 0.547 | 0.513 | 0.493 | 0.475 | 0.461 | 0.449 | 0.436 | 0.427 | 0.422 | 0.418
313.15 K | 0.478 | 0.447 | 0.43 | 0.414 | 0.402 | 0.392 | 0.381 | 0.375 | 0.372 | 0.37

CCCCCCCCO + c1ccccc1
viscosity [mPa·s], [1]
Details | 293.15 K | 298.15 K | 303.15 K | 313.15 K | 323.15 K
100 kPa, x2 = 0.0834 | 7.415 | – | 5.248 | 3.685 | 2.768
100 kPa, x2 = 0.1711 | 6.045 | – | 4.294 | 2.932 | 2.235
100 kPa, x2 = 0.2512 | 5.033 | – | 3.532 | 2.393 | 1.821
100 kPa, x2 = 0.3602 | 3.894 | – | 2.682 | 1.807 | 1.365
100 kPa, x2 = 0.4552 | 3.069 | – | 2.085 | 1.4 | 1.062
100 kPa, x2 = 0.5612 | 2.333 | – | 1.545 | 1.076 | 0.818
100 kPa, x2 = 0.6483 | 1.824 | – | 1.236 | 0.904 | 0.7
100 kPa, x2 = 0.7524 | 1.334 | – | 0.957 | 0.736 | 0.594
100 kPa, x2 = 0.8537 | 0.975 | – | 0.736 | 0.608 | 0.516
100 kPa, x2 = 0.9502 | 0.748 | – | 0.612 | 0.525 | 0.455
101.33 kPa, x1 = 0.2 | – | 0.863 | – | – | 0.57
